The record followed here is a melting point compilation (Tetko et al.; mined from patent text by program, amines drawn as free bases though some values may be those of a salt).

The structures appear in SMILES notation.

`CCOC(=O)CN1C(=O)[C@H](NC(=O)[C@H](COCc2ccccc2)NC(=O)OC(C)(C)C)CSc2ccccc21` had a melting point of 52 to 54 °C.
To `Cn1ncc(-c2ccc3c(c2)c(C2CCN(CCN4CCNC4=O)CC2)cn3-c2ccc(F)cc2)n1` belongs 203 to 204 °C; to `CC(C)(C)C(=O)Nc1c(SC(F)(F)F)c(C#N)nn1-c1c(Cl)cc(C(F)(F)F)cc1Cl`, 172 to 174 °C; to `O=c1oc(-c2ccccc2)cc(O)c1N(Cc1ccccc1)Cc1ccccc1`, 130 to 135 °C.
As for `CCc1c(C(=O)N2CCN(CCCCc3c[nH]c4ccc(F)cc34)CC2)nc(-c2ccccc2Cl)n1-c1ccc(Cl)cc1`, the figure is 91 to 92 °C; as for `CCOC(=O)c1cn(C(C)F)c2cc(-n3cccc3)c(F)cc2c1=O` (centres undefined), 231 to 234 °C.
In turn, `O=C(O)c1ccc(OCCCc2ccc(OCCCC3CCCCC3)cc2)c(C(=O)NC2CCCC(C(=O)O)C2)c1` (centres undefined) gave a melting point of 160 °C.
As for `CSc1ccc(CC2C(C)=C(CCN(O)C(N)=O)c3ccccc32)cc1` (centres undefined), the figure is 163 to 164 °C.
In the case of `CC(C#N)(CCC(=O)O)SC(=S)c1ccccc1` (centres undefined), the melting point is 97 to 99 °C.
As for `CCCCCS(=O)(=O)NC(=O)CCc1cc(OCCCC)nn1Cc1ccc(Cl)cc1Cl`, the figure is 104 to 105 °C; as for `OCc1cn2c(n1)CN=C(c1ccccc1F)c1cc(Cl)ccc1-2`, 196 to 200 °C; as for `N#CC1(Nc2ccc(Cl)cc2)CCN(C(=O)c2cc(C(F)(F)F)cc(C(F)(F)F)c2)CC1`, 176 to 180 °C.
As for `O=C1c2ccc(F)cc2C(=O)c2cc3cc(F)ccc3cc21`, the figure is 251 to 253 °C; as for `Cc1cccc(-c2nc(C(C)C)[nH]c2-c2ccc(F)c(-c3cnn(C(C)C)c3)c2)n1`, 84 to 85 °C.
As for `Cc1c(C)c2c(c(C)c1O)SCO2`, the figure is 131 to 132 °C; as for `CCOC(=O)c1cn(-c2ccc(OC)cc2)c2c(F)c(F)c(F)c(C)c2c1=O`, 175 to 176 °C; as for `C=CC1(S(=O)(=O)CCS(=O)(=O)CC(O)CS(=O)(=O)CCCl)C=CC=CC1` (centres undefined), over 200 °C.
In the case of `CCCCc1nc2c(N)nc3ccccc3c2n1CCOCCS(C)(=O)=O`, the melting point is 168 to 170 °C.
`COc1c(C)cccc1C(=N)N` came in with a melting point of 72 to 74 °C.
`CC(C#N)(CNC(=O)c1nn(C2CCCCO2)cc1NC(=O)c1ccccn1)Cc1ccccc1` (centres undefined) gave a melting point of 187 to 190 °C.
To `Cn1c([N+](=O)[O-])cnc1COc1ccc(SC#N)cc1` belongs 140 °C; to `CCCC[C@]1(CC)CS(=O)(=O)c2cc3c(cc2[C@@H](c2ccccc2)N1)OCO3`, 71 to 73 °C.
To `Cc1cc(OCc2sc(-c3ccc(C(F)(F)F)cc3)nc2C)ccc1CCC(=O)O` belongs 141 to 143 °C; to `CCOC(=O)c1c(C)nc(N2CCCCC2)c2nnn(CC)c12`, 45 to 47 °C.
As for `CC(O)(CCO)c1ccc(-c2ccc(F)cc2F)cc1` (centres undefined), the figure is 82 to 84 °C; as for `CNC(=O)[C@@H]1CC[C@H](C(=O)O)N1Cc1ccccc1` (relative stereo), 190 to 192 °C; as for `COC(=O)[C@]1(OS(C)(=O)=O)C[C@H](CC(C)C)[C@@H](O)[C@H](O)C1`, 122 to 123 °C.
For the molecule `CN1C(=O)C2(COc3cc4c(cc32)OCCO4)c2c(NC(=O)C3CC3)cccc21` (centres undefined), the melting point lay within 266 to 268 °C.
As for `CCCCC(C=C1c2cc3c(cc2-c2sc(-c4cc5sccc5s4)cc21)C(=CC(CC)CCCC)c1cc(-c2cc4sccc4s2)sc1-3)CC` (centres undefined), the figure is 320 °C.
As to `COc1ccc(/C=N/N2C=COC=C2)cc1OC1CCCC1`, the melting point was in the range of 108 to 109 °C.
In turn, `Cn1cc(-c2cc(-c3cnc4c(c3)CCN4)ccn2)n(-c2ccc(C(C)(C)C#N)cc2)c1=O` yielded a melting point of 247 °C.
`Cc1ccc(NC(=S)NCCCO)c(C)c1` yielded a melting point of 90 to 93 °C.
In turn, `CCSC=C1SC(=O)N(CCCCSc2cccc3nccn23)C1=O` came in with a melting point of 159 to 160 °C.
Molecule `CCCCCCCCCCCCCCCCCCOc1cc(N)cc(C(N)=O)c1` gave a melting point of 139 to 143 °C.
To `O=C1Nc2ccc(Br)cc2C12CCNCC2` belongs 256 to 258 °C; to `Cc1coc2cc(O)ccc12`, 92 °C; to `NC(=O)N(O)CCn1ccc2ccccc21`, 57 to 60 °C.
`CCCCc1nc2c(N)nc3ccccc3c2n1CCNS(C)(=O)=O`: the melting point was 210 to 211 °C.
To `CN(C)CC1(C2(O)CCCCC2)Cc2cc3c(cc21)NCC3` (centres undefined) belongs 159 to 161 °C; to `CC1(O)CN(c2c(F)cc3c(=O)c(C(=O)O)cn(C4CC4)c3c2F)C1`, 290 to 294 °C; to `CNc1nnc(C(C)(C)CCl)s1`, 91 to 93 °C.
Take `O=C(c1ccc2nonc2c1)N(CC(F)(F)F)C1CCOCC1`: the melting point lay within 134 to 135 °C.
As for `CCCCCc1ccc(Br)nn1`, the figure is 31 to 32 °C; as for `CCCCc1nc(Cl)c(CO)n1Cc1ccccc1Cl`, 134 to 135 °C.
To `O=C(Nc1cccc(Br)c1)Oc1ccccc1` belongs 88 to 90 °C.
To `CCOC(=O)c1cccc(Sc2nc(C)c(CC(=O)O)s2)n1` belongs 140 to 142 °C.
Consider `O=C(Cn1c(-c2ccc(Cl)cc2)nc2cccnc21)Nc1ccccc1`, for which the melting point was 240 to 242 °C.
As for `O=C(O)CCOc1cccc(CCNC(=O)C2Cc3ccccc3N2S(=O)(=O)c2ccc(-c3cccc(C(F)(F)F)c3)cc2)c1` (centres undefined), the figure is 78 °C; as for `Nc1cc(NC(=O)CCCCl)c(Cl)cc1Cl`, 125 to 128 °C; as for `CCC(C)(C)c1nc(C(C)C)[nH]c1C(C)(C)CC`, 28 °C.
As to `COC(=O)CCc1cc2cc(Cl)ccc2n1S(=O)(=O)c1ccc2ncsc2c1`, the melting point lay in the range of 134 to 138 °C.
To `C#CC[C@@H](NC(=O)OC(C)(C)C)c1nc2cccnc2c(=O)n1Nc1ccccc1` belongs 108 to 110 °C; to `CCOC(=O)Cc1ccc(S(=O)(=O)C2CC2)cc1`, 102 to 104 °C.
To `COC(=O)C(=CC=Cc1cc([N+](=O)[O-])ccc1Cl)C(=O)OC` belongs 167 to 168 °C; to `CC1CN(C2=Nc3ccccc3Oc3ccccc32)CC(C)N1` (centres undefined), 112 to 114 °C.
Molecule `ON=C1CCN(CC2CCCO2)CC1` (centres undefined) yielded a melting point of 104 to 106 °C.
As to `COc1ccc(C(=O)N2CC[C@H](O)C2=O)cc1OCc1ccccc1`, the melting point lay within 166 to 167 °C.
Consider `CC12CC(F)C3C4CCC(=O)C=C4CC(CCCCCCl)C3C1CCC2=O` (centres undefined), for which the melting point lay within 51 to 53 °C.
To `C1=CNc2c(ccc3ncccc23)C=N1` belongs 169 to 171 °C; to `CC=C1CCC2C3CC=C4CC(OC(C)=O)CC(OC(C)=O)C4(C)C3CCC12C` (centres undefined), 90 to 91 °C.
As for `CC(C)(C)c1nc2cc(N3CCCCC3)c([N+](=O)[O-])cc2s1`, the melting point lay in the range of 147 to 148 °C.
`CS(=O)(=O)Cc1ccc(C(=NNC(N)=O)c2ccc(Cl)cc2)cc1` displayed a melting point of 189 to 191 °C.
`CCOC(=O)C1(O)c2ccccc2S(=O)(=O)N1Cc1ccc(Br)cc1` (centres undefined): the melting point fell in the range of 152 to 153 °C.
The molecule `CN(C)C(=O)Sc1ccc(C(=O)c2ccc([N+](=O)[O-])cc2)cc1` showed a melting point of 198 to 199 °C.
To `N#Cc1ccc(Cn2c3cc(O)c(O)cc3c3c(Br)cc(O)c(O)c32)cc1` belongs over 260 °C; to `CC(CSC(=O)Nc1ccccc1)C(=O)N(CC(=O)O)C1CCCC1` (centres undefined), 170 to 172 °C.
As to `CC(N)Cn1ncc2ccc3c(c21)CC(O)CO3` (centres undefined), the melting point lay within 46 to 51 °C.
`CCN1CCN(c2ccc(C(=O)NCCCCCCCCCCCCO)cn2)CC1` came in with a melting point of 108 to 110 °C.
In turn, `O=C1C(=c2[nH]c(=c3[nH]c(=C4C(=O)c5ccccc5C4=O)c4ccccc34)c3ccccc23)C(=O)c2ccccc21` showed a melting point of over 300 °C.
For `OCCc1c(Br)cc(Br)c2cccnc12`, the melting point was 128 to 131 °C.
Take `C=C(C)OC(=O)N1c2cnccc2NC(=O)C1C` (racemic): the melting point was 236 °C.
To `CN1Cc2c(C#N)ccc3scc(c23)S1(=O)=O` belongs 238 °C.
To `CN(C1CCS(=O)(=O)C1)S(=O)(=O)c1ccc(Nc2nccc(Nc3ccc(F)cc3)n2)cc1` (centres undefined) belongs 236 to 240 °C.
To `COc1cc(NC(=S)NC2CCCCC2)ccc1NNC=O` belongs 131 to 133 °C.
Molecule `NS(=O)(=O)c1cc2c(s1)CCC(O)C2` (centres undefined) registered a melting point of 176 to 179 °C.
On to `CC(=C1SC(=O)NC1=O)c1ccc(OCCOc2c(-c3ccc(F)c(F)c3)n(C)c3cc(F)ccc3c2=O)cc1`, for which the melting point is 270 to 272 °C.
Regarding `COC1=C(c2ccccc2CSc2nc3ccccc3s2)C(=O)OC1`, the melting point lay within 81 to 82 °C.
In turn, `O=C(NC(Cc1ccccc1)C(=O)O)c1ccc(-c2ccc(OCc3ccccc3)cc2)cc1` (centres undefined) came in with a melting point of 302 °C.
As to `CC(=O)c1ccc(-c2ccccc2NC(=N)N(C)C)cc1`, the melting point lay within 174 to 175 °C.
As for `O=C(c1ccccc1)c1ccc(OCCOCCO)cc1`, the figure is 31 to 32 °C; as for `COc1cc(Nc2c(C#N)cnc3cc(-c4ccc(CNCCS(=O)(=O)c5ccccc5)cc4)ccc23)c(Cl)cc1Cl`, 198 to 201 °C.
As for `CC(c1ccc(-c2ccccc2)c(F)c1)c1csc(NC(=O)c2ccccc2)n1` (centres undefined), the figure is 147 to 148 °C.
To `COc1ccc(C(=C(C=O)c2nnnn2C)c2ccc(OC)cc2)cc1` belongs 130 to 131 °C; to `COC(=O)CCCCN(CCc1c[nH]c2ccccc12)CC(C)C`, 103 to 104 °C; to `CC(=O)N(CCCc1ccccc1)[C@H]1CC[C@H](c2ccc(O)cc2)CC1`, 175 to 180 °C.
Consider `COCCCCC(O)(c1ccccc1)c1ccccc1`, for which the melting point lay in the range of 112 to 115 °C.
`CNC(=O)NC(Cc1c[nH]c2ccccc12)C(=O)NCc1cc(C(F)(F)F)cc(C(F)(F)F)c1` (centres undefined) registered a melting point of 213 to 215 °C.
`CC(C(=O)C=Cc1ccc(Cl)cc1)n1cncn1` (centres undefined) showed a melting point of 115 to 116 °C.
Molecule `Nc1nc(N)c2c(n1)CCC(c1ccccc1)C2` (centres undefined) came in with a melting point of 223 to 226 °C.
